Structures can show the parent of a compound that is named as a salt. Where two headings read alike, the source gives them in different places.
How the values were obtained:
rat primary hepatocytes [1] = system: rat primary hepatocytes
HepG2 cells [2] = details: cited from earlier work
HepG2 cells [3] = details: for IC50: read-out: MMP assays IC50 (µM) HepG2
rat primary hepatocytes [4] = assay: MMP assay in rat primary hepatocytes; details: for IC50: read-out: MMP assays IC50 (µM) Rat Hepatocytes
[5] = read-out: MMP assays IC50 (µM), qHTS-HepG2
[6] = read-out: MMP assays IC50 (µM) qHTS-HepG2

Compound	MMP assays efficacy (%) Rat Hepatocytes (rat primary hepatocytes [1])	MMP assays IC50 (µM) qHTS-HepG2 (HepG2 cells [2])	MMP assays efficacy (%) qHTS-HepG2 (HepG2 cells [2])	MMP assays IC50 (µM) HepG2 (HepG2 cells [3])	MMP assays efficacy (%) HepG2 (HepG2 cells [3])	MMP assays IC50 (µM) Rat Hepatocytes (rat primary hepatocytes [4])	IC50 (HepG2 cells [2]; [5]) [µM]	IC50 (HepG2 cells [3]) [µM]	IC50 (rat primary hepatocytes [4]) [µM]	IC50 (HepG2 cells [2]; [6]) [µM]	IC50 (rat primary hepatocytes [4]; Rattus norvegicus, Hepatocyte) [µM]
COc1ccc2c(=O)c(C)c(-c3ccccc3)oc2c1CN(C)C.Cl [Dimefline hydrochloride]	inactive	inactive	inactive	inactive	inactive	inactive					
COc1cc([C@@H]2c3cc4c(cc3[C@H](O)[C@H]3COC(=O)[C@@H]23)OCO4)cc(OC)c1OC [Picropodophyllin;AXL-1717/NSC-36407]	inactive		-56±10%		-58%	inactive	0.14 ± 0.02	0.0548			
COc1cc(Cl)ccc1Oc1ccc(Cl)cc1Cl [Methyl triclosan]	-95±27%		-79±13%		-95%		25.5 ± 1.67	39.8	45.9 ± 14.7		
CC(=O)[O][Sn]([c]1ccccc1)([c]1ccccc1)[c]1ccccc1 [Triphenyltin acetate]	-74±32%		-99±5%		-94%		0.12 ± 0.04	1.12	24.1 ± 10.1		
CS(=O)(=O)O.CS(=O)(=O)O.N=C(N)c1ccc(/C=C/c2ccc(C(=N)N)cc2O)cc1	-71±16%		-57±17%	inactive	inactive		2.81 ± 0.9		13.6 ± 8.28		
N#Cc1c2ccccc2cc2ccccc12 [Compound 9-Cyanoanthracene]	-32±6%		-74±32%	inactive	inactive					6.85 ± 18.1	18 ± 5.46
Clc1ccc(Nc2nnc(Cc3ccncc3)c3ccccc23)cc1	-51±4%		-81±8%		-34%		25.6 ± 4.41	30.8	20.7 ± 14.7		
Nc1ccc(/N=N/c2ccccc2)c(N)n1 [Phenazopyridine hydrochloride]	-59±26%		-74±20%	inactive	inactive		15.7 ± 3.45				23.8 ± 1.93
CSc1nc(NC2CC2)nc(NC(C)(C)C)n1 [Cybutryne]	-69±43%		-81±18%	inactive	inactive				14.3 ± 16	20.9 ± 13.9	
Cc1cccc(C)c1OCC(=O)N[C@@H](Cc1ccccc1)[C@@H](O)C[C@H](Cc1ccccc1)NC(=O)[C@H](C(C)C)N1CCCNC1=O [Lopinavir;ABT-738]	-27±0%		-66±16%	inactive	inactive		32.7 ± 1.32		15.4 ± 21.8		
CCCCC/C(=C\c1ccccc1)CO [alpha-Amylcinnamyl alcohol]	-85±44%		-87±10%		-69%			56.2	4.83 ± 4.07	38.1 ± 17.4	
Cc1oc(C)c(C(=O)Nc2ccccc2)c1C [Methfuroxam]	inactive		-69±12%		-48%	inactive	25.8 ± 1.71	17.8			
